Laboratory results: article PMC9655037, “Alternation of Organ-Specific Exposure in LPS-Induced Pneumonia Mice after the Inhalation of Tetrandrine Is Governed by Metabolizing Enzyme Suppression and Lysosomal Trapping” (International Journal of Molecular Sciences, 2022)
“And” between values parts separate entries of the source, which are not always exact repeats. Equal entries are not always repeated. Where two headings read alike, the source gives them in different places.

Experiment: Metabolic stability of TET in NADPH-supplemented liver microsomes from normal and LPS-induced ALI mice
Type: in vitro ADME, mouse
Details: for half-life at 1 µM: mouse, microsomes, 1.0 µM TET, 0.5 mg/mL protein, 37 °C, read-out: In vitro t1/2
Method: Liver and pulmonary microsomes from normal and LPS-induced pulmonary infected mice were isolated according to the conventional differential centrifugation approach. In brief, six normal mice and six acute pneumonia mice (48 h after i.t. administration of LPS) were sacrificed. Lungs and livers were harvested and rinsed with ice NS. The tissues were weighed and homogenized with 50 mM Tris buffer solution (TBS, m:v = 1:3). The prepared homogenate was then immediately centrifuged at 10,000× g at 4 °C for 20 min. The resulting supernatant was further centrifuged at 105,000× g at 4 °C for 60 min to yield mouse liver microsomes (MLM) and mouse pulmonary microsomes (MPM). The sediment was resuspended with storage buffer (50 mM TBS containing 0.25 M sucrose and 20% glycerol) and stored at −80 °C immediately. The protein content of the harvested microsomes was measured following the BCA protein assay protocol.
TET (1 μM, 1% acetonitrile) was incubated in normal or pneumonia mice liver microsomes or pulmonary microsomes (0.5 mg/mL) diluted with 100 mM PBS (pH 7.4) containing MgCl2 (3 mM). After preincubation of 5 min, the reaction was initiated by adding NADPH (final concentration of 1 mM) at 37 °C. Periodic aliquots of the incubation mixture at 0, 15, 30, and 45 min were removed, and the protein was precipitated with ice-cold acetonitrile containing IS. After centrifugation, the supernatant was collected and analyzed for the depletion of TET by LC-MS/MS.
The in vitro t1/2 in mouse liver microsomal incubation was calculated from the semi-log plot of percentage remaining vs. incubation time and intrinsic clearance (CLint,app mL/min/mg protein) was calculated as Equation (2).
(3) CLint,scaled=CLint,app×45mg microsomes/g liver×g liver/kg body weight (4) CLh,blood=Q×fu,p/Rb/p×CLint/fu,mic/Q+CLint·fu,p/Rb·CLint/fu,mic

For `COc1ccc2cc1Oc1ccc(cc1)C[C@H]1c3cc(c(OC)cc3CCN1C)Oc1c(OC)c(OC)cc3c1[C@H](C2)N(C)CC3` [TET, Tetrandrine], the “CLhep,blood (hepatic clearance, well-stirred model)” value (LPS-treated mice liver microsomes) was 1.48 mL/min/kg and 1.48 ± 0.0136 mL/min/kg, the half-life at 1 µM (pH 7.4, LPS-treated mice liver microsomes) was 1.4 ± 0.013 h and the half-life at 1 µM (pH 7.4, normal mice liver microsomes) was 0.88 ± 0.0292 h. The “CLhep,blood (hepatic clearance, well-stirred model)” value (normal mice liver microsomes) was 2.33 mL/min/kg and 2.33 ± 0.075 mL/min/kg.
